Assay results as given in publication PMC8647499, “Preclinical evaluation of strasseriolides A–D, potent antiplasmodial macrolides isolated from Strasseria geniculata CF-247,251” (Malaria Journal, 2021).

Legend:
[1] = Metabolic stability assay in human liver microsomes; assay type: in vitro ADME; settings: for half-life: pH 7.4, 1 mg/mL protein; for Clearance Category: ranked by CLint
Experimental: Pretreatment of the 96-well ABgen-0765 reaction plates was the same as previously described above. Two microlitres (2 µL) of compounds (previously dissolved in DMSO) were pre-incubated with 98 µL of cofactor/buffer solution (0.1 M phosphate buffer of pH 7.4, 100 mM K3PO4, 3.3 mM MgCl2, 3.3 mM G6P, 1.3 mM NADPH, and 0.4 u/mL G6PDH) at 37 °C for 10 min. The reactions were then initiated by the addition of 100 µL of HLM solution (at final protein concentration of 1 mg/mL), after which they were stopped at pre-determined incubation times of 0, 10, 15, 30, 45 and 60 min by adding 90 µL acetonitrile containing internal LC–MS–MS standards and shaking at 180 Hz. The samples were centrifuged to sediment the protein precipitates and the supernatants were analysed by LC–MS–MS as previously described above. The integration of each analyte (the […]) and internal standard peak area was performed by the Analyst® software version 1.5.2 and used to calculate the percentage of remaining compound at each incubation time. The natural logarithm of the percentage of the remaining parent compound was plotted against the incubation time and used to calculate the half-life by the following equation:
Half-life (T ½ min) = 0.693/k, where k is the slope of a plot of the natural log of the percentage parent compound remaining vs. time.
The intrinsic clearance (CLint) was determined by the equation: CLint
=Ln2/t1/2min∗volumeincubationmL/microsomalproteinmg∗45MPPGL1500ghumanliver/70kghumanbodyweightj
Units for CLint were expressed as mL/min/mg microsomal protein and MPPGL = mg microsomal protein per gram liver.

[2] = tested on: Plasmodium falciparum strain 3D7 whole parasites; design: method as in PMID 32808790; settings: in vitro, read-out: IC50 against Plasmodium falciparum strain 3D7; cited from earlier work
[3] = Solubility in the formulation vehicle; assay type: physicochemical; settings: at 25 mg/Kg dosage, about 5.53 mM in 200 µL vehicle; preliminary unpublished data

SMILES	half-life [1] [min]	Clearance Category [1]	IC50 [2] [nM]	soluble in the formulation vehicle [3] [%]
C/C1=C\[C@H](C)C(=O)C[C@@H](O)/C(C)=C/[C@H](C)C[C@@H](C)CC[C@@H]([C@@H](C)C(=O)O)OC(=O)[C@@H](C)C1 [Strasseriolide C, strasseriolide C]	15.9 ± 1.15	Medium	123	–
C/C1=C\[C@H](C)[C@@H](O)C[C@@H](O)/C(C)=C/[C@H](C)C[C@@H](C)CC[C@@H]([C@@H](C)C(=O)O)OC(=O)[C@@H](C)C1 [Strasseriolide D, strasseriolide D]	> 60	Low	128	35
